Data reported in the NIST ThermoML archive (doi:10.1016/j.jct.2012.04.007).

Key:
[1] = 101.33 kPa, Liquid, Vibrating tube method
[2] = xn = mol fraction of the nth substance listed; conditions: 101 kPa, Liquid, Vibrating tube method

CC(=O)N(C)C [N,N-dimethylethanamide]
[1]
Conditions | mass density [kg/m3]
278.15 K | 954.78
288.15 K | 945.591
298.15 K | 936.382
308.15 K | 927.142
318.15 K | 917.863

CC(=O)N(C)C [N,N-dimethylethanamide] + O
mass density [kg/m3], [2]
Conditions | 278.15 K | 288.15 K | 298.15 K | 308.15 K | 318.15 K
x2 = 0.0002901 | 954.8 | 945.61 | 936.4 | 927.16 | 917.88
x2 = 0.001042 | 954.84 | 945.65 | 936.44 | 927.2 | 917.92
x2 = 0.001656 | 954.87 | 945.68 | 936.47 | 927.23 | 917.95
x2 = 0.002777 | 954.93 | 945.74 | 936.53 | 927.28 | 918
x2 = 0.003783 | 954.99 | 945.8 | 936.58 | 927.34 | 918.05
x2 = 0.004833 | 955.05 | 945.85 | 936.64 | 927.39 | 918.1
x2 = 0.005867 | 955.1 | 945.91 | 936.69 | 927.44 | 918.16
x2 = 0.007593 | 955.19 | 946 | 936.78 | 927.53 | 918.24
x2 = 0.008945 | 955.27 | 946.07 | 936.85 | 927.6 | 918.31
x2 = 0.01063 | 955.36 | 946.16 | 936.94 | 927.69 | 918.39
x2 = 0.01192 | 955.43 | 946.23 | 937.01 | 927.75 | 918.46

CN(C)C=O [dimethylformamide]
[1]
Conditions | mass density [kg/m3]
278.15 K | 962.901
288.15 K | 953.398
298.15 K | 943.869
308.15 K | 934.298
318.15 K | 924.683

CN(C)C=O [dimethylformamide] + O
mass density [kg/m3], [2]
Conditions | 278.15 K | 288.15 K | 298.15 K | 308.15 K | 318.15 K
x2 = 0.0002028 | 962.91 | 953.41 | 943.88 | 934.31 | 924.69
x2 = 0.0008875 | 962.94 | 953.44 | 943.91 | 934.34 | 924.72
x2 = 0.001707 | 962.98 | 953.48 | 943.95 | 934.38 | 924.76
x2 = 0.002654 | 963.03 | 953.53 | 944 | 934.42 | 924.8
x2 = 0.003456 | 963.06 | 953.57 | 944.03 | 934.46 | 924.84
x2 = 0.00465 | 963.12 | 953.62 | 944.09 | 934.52 | 924.89
x2 = 0.006106 | 963.19 | 953.69 | 944.16 | 934.58 | 924.96
x2 = 0.007804 | 963.28 | 953.77 | 944.24 | 934.66 | 925.04
x2 = 0.009189 | 963.34 | 953.84 | 944.3 | 934.73 | 925.1
x2 = 0.01051 | 963.4 | 953.9 | 944.37 | 934.79 | 925.16
x2 = 0.01182 | 963.47 | 953.97 | 944.43 | 934.85 | 925.22

[2H]O[2H] [water-d2] + CC(=O)N(C)C
mass density [kg/m3], [2]
Conditions | 278.15 K | 288.15 K | 298.15 K | 308.15 K | 318.15 K
x1 = 0.0002901 | 954.8 | 945.61 | 936.4 | 927.16 | 917.88
x1 = 0.0009284 | 954.85 | 945.66 | 936.45 | 927.21 | 917.93
x1 = 0.00199 | 954.93 | 945.74 | 936.53 | 927.29 | 918
x1 = 0.002684 | 954.98 | 945.79 | 936.58 | 927.34 | 918.05
x1 = 0.003434 | 955.05 | 945.85 | 936.64 | 927.39 | 918.11
x1 = 0.004789 | 955.15 | 945.96 | 936.74 | 927.49 | 918.21
x1 = 0.005915 | 955.24 | 946.05 | 936.83 | 927.58 | 918.28
x1 = 0.007384 | 955.36 | 946.16 | 936.94 | 927.69 | 918.39
x1 = 0.008715 | 955.46 | 946.26 | 937.04 | 927.79 | 918.49
x1 = 0.01024 | 955.59 | 946.38 | 937.16 | 927.9 | 918.6
x1 = 0.01198 | 955.72 | 946.52 | 937.29 | 928.03 | 918.73

[2H]O[2H] [water-d2] + CN(C)C=O
mass density [kg/m3], [2]
Conditions | 278.15 K | 288.15 K | 298.15 K | 308.15 K | 318.15 K
x1 = 0.0002028 | 962.92 | 953.41 | 943.88 | 934.31 | 924.7
x1 = 0.0009641 | 962.98 | 953.47 | 943.94 | 934.37 | 924.75
x1 = 0.00191 | 963.05 | 953.54 | 944.01 | 934.44 | 924.82
x1 = 0.002862 | 963.12 | 953.61 | 944.08 | 934.5 | 924.89
x1 = 0.003812 | 963.19 | 953.68 | 944.15 | 934.57 | 924.96
x1 = 0.004846 | 963.27 | 953.76 | 944.23 | 934.65 | 925.03
x1 = 0.005839 | 963.35 | 953.84 | 944.3 | 934.72 | 925.1
x1 = 0.006984 | 963.44 | 953.92 | 944.39 | 934.81 | 925.19
x1 = 0.008587 | 963.56 | 954.05 | 944.51 | 934.93 | 925.31
x1 = 0.01049 | 963.71 | 954.19 | 944.65 | 935.07 | 925.44
x1 = 0.012 | 963.83 | 954.31 | 944.77 | 935.18 | 925.55
